{"source": "paper PMC7464159", "about": "“Triple Negative Breast Cancer and Breast Epithelial Cells Differentially Reprogram Glucose and Lipid Metabolism upon Treatment with Triterpenic Acids” (Biomolecules, 2020)", "tested_on": "MDA-MB-231 cells", "test": "1H NMR metabolomics of polar (aqueous) cell extracts", "format": "cell-based, human", "protocol": "MDA-MB-231 and MCF-10A cells were seeded in 10-cm-diameter Petri dishes at a density of 6 × 10^5 cells/mL (10 mL per dish) and cultured for 24 h at 37 °C. […] Vehicle solvent control cells received DMSO (0.10% v/v). Samples were collected immediately after 48 h incubation or, to assess cellular recovery, medium was replaced with fresh growth medium (without TAs), and cells were incubated for additional 24 h before collection (48 + 24 h samples). Four independent assays were performed.\nAfter incubation, culture medium was collected and centrifuged (1000× g, 5 min) and the supernatant stored at −80 °C until analysis. Culture medium without cells was placed under the same conditions and collected. Cell extraction was performed as described by Carrola et al.. Briefly, cells were washed four times with PBS and extracted with a mixture of methanol:chloroform:water (1:1:0.7). The resulting polar and organic phases were collected and then dried under vacuum or under a stream of nitrogen gas, respectively. All samples were stored at −80 °C and, at the time of analysis, dried polar extracts were reconstituted in 600 µL of deuterated phosphate buffer (100 mM, pH 7.4) containing 0.1 mM TSP-d4, while organic extracts were reconstituted in deuterated chloroform containing 0.03% TMS. Regarding medium samples, 540 μL were mixed with 60 μL of D2O containing 0.25% TSP-d4. Prior to analysis, 550 μL of each sample were transferred to 5 mm NMR tubes.\n^1H NMR spectra of all samples were acquired on a Bruker Avance III HD 500 NMR spectrometer (University of Aveiro, Portuguese NMR Network) operating at 500.13 MHz for ^1H observation equipped with a 5 mm TXI probe. Standard 1D spectra (Bruker pulse programs ‘noesypr1d’, with water suppression, for medium samples and aqueous extracts, and ‘zg’ for organic extracts) were recorded with a 7002.8 Hz spectral width, 32 k data points, a 2 s relaxation delay and 512 scans. Spectral processing comprised exponential multiplication with 0.3 Hz line broadening, zero filling to 64 k data points, manual phasing, baseline correction, and chemical shift calibration to the TSP or TMS signal at 0 ppm. 2D ^1H-^1H total correlation (TOCSY) spectra, ^1H-^13C heteronuclear single quantum correlation (HSQC) spectra and J-resolved spectra were also registered for selected samples to assist spectral assignment. Metabolites were identified with the support of 2D spectra and the spectral reference databases BBIOREFCODE-2-0-0 (Bruker Biospin, Rheinstetten, Germany) and HMDB [28]. Selected signals were then integrated using the AmixViewer software […] (version 3.9.14, Bruker BioSpin, Rheinstetten, Germany) and normalized by the total spectral area. The magnitude of each metabolite change was assessed through the percentage of variation (and its respective error) in exposed samples relatively to controls, and through the effect size (ES) adjusted for small sample numbers (and respective standard error). Metabolite variations with absolute ES greater than 0.8 were expressed in a heatmap, colored as a function of the percentage of variation, employing the R statistical software."}
{"smiles": "C[C@H]1[C@H](C)CC[C@]2(C(=O)O)CC[C@]3(C)C(=CC[C@@H]4[C@@]5(C)CC[C@H](O)C(C)(C)[C@@H]5CC[C@]43C)[C@H]12", "note": "[UA, ursolic acid]", "values": [{"measurement": "ATP %var", "setting": "UA 10µM, 48h", "value": 0, "unit": "%"}, {"measurement": "Acetate %var", "setting": "UA 10µM, 48h", "value": 0, "unit": "%"}, {"measurement": "Ala %var", "setting": "UA 10µM, 48h", "value": 0, "unit": "%"}, {"measurement": "Asp %var", "setting": "UA 10µM, 48h", "value": 0, "unit": "%"}, {"measurement": "Choline %var", "setting": "UA 10µM, 48h", "value": -6.23, "unit": "%"}, {"measurement": "Citrate %var", "setting": "UA 10µM, 48h", "value": -23.26, "unit": "%"}, {"measurement": "Cr %var", "setting": "UA 10µM, 48h", "value": 0, "unit": "%"}, {"measurement": "Fumarate %var", "setting": "UA 10µM, 48h", "value": 0, "unit": "%"}, {"measurement": "GPC %var", "setting": "UA 10µM, 48h", "value": 9.94, "unit": "%"}, {"measurement": "GSH %var", "setting": "UA 10µM, 48h", "value": -7.40, "unit": "%"}, {"measurement": "Gln %var", "setting": "UA 10µM, 48h", "value": -13.00, "unit": "%"}, {"measurement": "Glu %var", "setting": "UA 10µM, 48h", "value": 0, "unit": "%"}, {"measurement": "Gly %var", "setting": "UA 10µM, 48h", "value": 0, "unit": "%"}, {"measurement": "Ile %var", "setting": "UA 10µM, 48h", "value": 0, "unit": "%"}, {"measurement": "Lactate %var", "setting": "UA 10µM, 48h", "value": 0, "unit": "%"}, {"measurement": "Leu %var", "setting": "UA 10µM, 48h", "value": 0, "unit": "%"}, {"measurement": "PC %var", "setting": "UA 10µM, 48h", "value": -7.00, "unit": "%"}, {"measurement": "PCr %var", "setting": "UA 10µM, 48h", "value": -13.59, "unit": "%"}, {"measurement": "Phe %var", "setting": "UA 10µM, 48h", "value": 0, "unit": "%"}, {"measurement": "Pro %var", "setting": "UA 10µM, 48h", "value": 0, "unit": "%"}, {"measurement": "Tau %var", "setting": "UA 10µM, 48h", "value": 0, "unit": "%"}, {"measurement": "Tyr %var", "setting": "UA 10µM, 48h", "value": 0, "unit": "%"}, {"measurement": "Val %var", "setting": "UA 10µM, 48h", "value": 0, "unit": "%"}, {"measurement": "myo-Ino %var", "setting": "UA 10µM, 48h", "value": 0, "unit": "%"}, {"measurement": "ATP %var", "setting": "UA 10µM, 48h+24h", "value": 0, "unit": "%"}, {"measurement": "Acetate %var", "setting": "UA 10µM, 48h+24h", "value": 0, "unit": "%"}, {"measurement": "Ala %var", "setting": "UA 10µM, 48h+24h", "value": 0.00, "unit": "%"}, {"measurement": "Asp %var", "setting": "UA 10µM, 48h+24h", "value": 0.00, "unit": "%"}, {"measurement": "Choline %var", "setting": "UA 10µM, 48h+24h", "value": 0, "unit": "%"}, {"measurement": "Citrate %var", "setting": "UA 10µM, 48h+24h", "value": -10.99, "unit": "%"}, {"measurement": "Cr %var", "setting": "UA 10µM, 48h+24h", "value": 0, "unit": "%"}, {"measurement": "Fumarate %var", "setting": "UA 10µM, 48h+24h", "value": 0, "unit": "%"}, {"measurement": "GPC %var", "setting": "UA 10µM, 48h+24h", "value": 0, "unit": "%"}, {"measurement": "GSH %var", "setting": "UA 10µM, 48h+24h", "value": 0, "unit": "%"}, {"measurement": "Gln %var", "setting": "UA 10µM, 48h+24h", "value": 0, "unit": "%"}, {"measurement": "Glu %var", "setting": "UA 10µM, 48h+24h", "value": 0, "unit": "%"}, {"measurement": "Gly %var", "setting": "UA 10µM, 48h+24h", "value": -7.50, "unit": "%"}, {"measurement": "Ile %var", "setting": "UA 10µM, 48h+24h", "value": 0, "unit": "%"}, {"measurement": "Lactate %var", "setting": "UA 10µM, 48h+24h", "value": 0, "unit": "%"}, {"measurement": "Leu %var", "setting": "UA 10µM, 48h+24h", "value": 0, "unit": "%"}, {"measurement": "PC %var", "setting": "UA 10µM, 48h+24h", "value": 0, "unit": "%"}, {"measurement": "PCr %var", "setting": "UA 10µM, 48h+24h", "value": 0, "unit": "%"}, {"measurement": "Phe %var", "setting": "UA 10µM, 48h+24h", "value": 0, "unit": "%"}, {"measurement": "Pro %var", "setting": "UA 10µM, 48h+24h", "value": 0, "unit": "%"}, {"measurement": "Tau %var", "setting": "UA 10µM, 48h+24h", "value": 0, "unit": "%"}, {"measurement": "Tyr %var", "setting": "UA 10µM, 48h+24h", "value": 0, "unit": "%"}, {"measurement": "Val %var", "setting": "UA 10µM, 48h+24h", "value": 0, "unit": "%"}, {"measurement": "myo-Ino %var", "setting": "UA 10µM, 48h+24h", "value": 0, "unit": "%"}, {"measurement": "ATP %var", "setting": "UA 20µM, 48h", "value": 0, "unit": "%"}, {"measurement": "Acetate %var", "setting": "UA 20µM, 48h", "value": 10.69, "unit": "%"}, {"measurement": "Ala %var", "setting": "UA 20µM, 48h", "value": 0, "unit": "%"}, {"measurement": "Choline %var", "setting": "UA 20µM, 48h", "value": 0, "unit": "%"}, {"measurement": "Citrate %var", "setting": "UA 20µM, 48h", "value": -19.44, "unit": "%"}, {"measurement": "Cr %var", "setting": "UA 20µM, 48h", "value": 0, "unit": "%"}, {"measurement": "GPC %var", "setting": "UA 20µM, 48h", "value": 10.72, "unit": "%"}, {"measurement": "GSH %var", "setting": "UA 20µM, 48h", "value": -7.50, "unit": "%"}, {"measurement": "Gln %var", "setting": "UA 20µM, 48h", "value": 0, "unit": "%"}, {"measurement": "Glu %var", "setting": "UA 20µM, 48h", "value": 0, "unit": "%"}, {"measurement": "Gly %var", "setting": "UA 20µM, 48h", "value": -15.08, "unit": "%"}, {"measurement": "Ile %var", "setting": "UA 20µM, 48h", "value": 0, "unit": "%"}, {"measurement": "Lactate %var", "setting": "UA 20µM, 48h", "value": 0, "unit": "%"}, {"measurement": "Leu %var", "setting": "UA 20µM, 48h", "value": 0, "unit": "%"}, {"measurement": "PC %var", "setting": "UA 20µM, 48h", "value": -6.17, "unit": "%"}, {"measurement": "PCr %var", "setting": "UA 20µM, 48h", "value": -10.77, "unit": "%"}, {"measurement": "Phe %var", "setting": "UA 20µM, 48h", "value": 0, "unit": "%"}, {"measurement": "Pro %var", "setting": "UA 20µM, 48h", "value": 0, "unit": "%"}, {"measurement": "Tau %var", "setting": "UA 20µM, 48h", "value": 11.82, "unit": "%"}, {"measurement": "Tyr %var", "setting": "UA 20µM, 48h", "value": 0, "unit": "%"}, {"measurement": "Val %var", "setting": "UA 20µM, 48h", "value": 0, "unit": "%"}, {"measurement": "myo-Ino %var", "setting": "UA 20µM, 48h", "value": 0, "unit": "%"}, {"measurement": "number of intracellular polar metabolites consistently altered", "setting": "UA 20µM, 48h", "value": 10}, {"measurement": "ATP %var", "setting": "UA 20µM, 48h+24h", "value": -9.33, "unit": "%"}, {"measurement": "Acetate %var", "setting": "UA 20µM, 48h+24h", "value": 11.02, "unit": "%"}, {"measurement": "Ala %var", "setting": "UA 20µM, 48h+24h", "value": -12.11, "unit": "%"}, {"measurement": "Asp %var", "setting": "UA 20µM, 48h+24h", "value": 32.91, "unit": "%"}, {"measurement": "Choline %var", "setting": "UA 20µM, 48h+24h", "value": 0, "unit": "%"}, {"measurement": "Citrate %var", "setting": "UA 20µM, 48h+24h", "value": -15.02, "unit": "%"}, {"measurement": "Cr %var", "setting": "UA 20µM, 48h+24h", "value": 0, "unit": "%"}, {"measurement": "Fumarate %var", "setting": "UA 20µM, 48h+24h", "value": -10.34, "unit": "%"}, {"measurement": "GPC %var", "setting": "UA 20µM, 48h+24h", "value": -6.52, "unit": "%"}, {"measurement": "GSH %var", "setting": "UA 20µM, 48h+24h", "value": -8.79, "unit": "%"}, {"measurement": "Gln %var", "setting": "UA 20µM, 48h+24h", "value": 0, "unit": "%"}, {"measurement": "Glu %var", "setting": "UA 20µM, 48h+24h", "value": 0, "unit": "%"}, {"measurement": "Gly %var", "setting": "UA 20µM, 48h+24h", "value": -25.85, "unit": "%"}, {"measurement": "Ile %var", "setting": "UA 20µM, 48h+24h", "value": 0, "unit": "%"}, {"measurement": "Lactate %var", "setting": "UA 20µM, 48h+24h", "value": 0, "unit": "%"}, {"measurement": "Leu %var", "setting": "UA 20µM, 48h+24h", "value": 0, "unit": "%"}, {"measurement": "PC %var", "setting": "UA 20µM, 48h+24h", "value": 21.66, "unit": "%"}, {"measurement": "PCr %var", "setting": "UA 20µM, 48h+24h", "value": 0, "unit": "%"}, {"measurement": "Phe %var", "setting": "UA 20µM, 48h+24h", "value": 0, "unit": "%"}, {"measurement": "Pro %var", "setting": "UA 20µM, 48h+24h", "value": 0, "unit": "%"}, {"measurement": "Tau %var", "setting": "UA 20µM, 48h+24h", "value": 0, "unit": "%"}, {"measurement": "Tyr %var", "setting": "UA 20µM, 48h+24h", "value": 0, "unit": "%"}, {"measurement": "Val %var", "setting": "UA 20µM, 48h+24h", "value": 0, "unit": "%"}, {"measurement": "myo-Ino %var", "setting": "UA 20µM, 48h+24h", "value": -9.02, "unit": "%"}]}
